Experimental data published in article PMC3674157 (European journal of medicinal chemistry, 2013).

Columns and labels:
Assay type in all cases: cell-based
[1] = system: HeLa human cervical carcinoma cells; test: High-content analysis of mitotic arrest in HeLa cells; conditions: for MDEC Nuclear condensation / MDEC Tubulin intensity: HCS assay, minimum detectable effective concentration; for mitotic arrest phenotype (immunostaining of α-tubulin, phosphohistone H3, Hoechst 33342): 1a 62 nM, 2c 940 nM, 3a 470 nM
[2] = system: MDA-MB-231 human breast cancer cells; test: Wound healing; conditions: three different concentrations
[3] = system: REH human acute lymphoblastic leukemia cells; test: REH cytotoxicity, MTT assay; conditions: REH and JURKAT versus NIH3T3, HUVEC

| SMILES | MDEC Nuclear condensation [1] | MDEC Tubulin intensity [1] | cell migration in the scratch wound assay [2] | mitotic arrest phenotype (immunostaining of α-tubulin, phosphohistone H3, Hoechst 33342) [1] | selectivity, nontransformed cells (NIH3T3, HUVEC, PBMC) compared with the two human tumor cell lines [3] |
| --- | --- | --- | --- | --- | --- |
| O=C(/C=C/c1ccccc1)c1ccccc1 [Compound 2a, 1,3-diphenylprop-2-en-1-one] | >50,000 nM | >50,000 nM |  |  |  |
| COc1cc2c(c(OC)c1OC)-c1ccc(OC)c(=O)cc1[C@@H](NC(C)=O)CC2 [Compound 1a, colchicine, reference compound] | 12.0 ± 4.8 nM | 10.2 ± 3.8 nM | significantly inhibited cell migration | tubulin disorganization, increased number of phosphohistone H3-positive cells, chromatin condensation, and nuclear fragmentation |  |
| COc1ccc(/C=C/C(=O)c2ccc3c(c2)OCO3)c(OC)c1OC [Compound 2d, (2E)-1-(1’,3’-benzodioxol-5-yl)-3-(2,3,4-trimethoxyphenyl)-2-propen-1-one] | >50,000 nM | >50,000 nM |  |  |  |
| COc1cc(C(=O)/C=C/c2ccc(N(C)C)cc2)cc(OC)c1OC [Compound 3a, (2E,Z)-1-(3’,4’,5’-trimethoxyphenyl)-3-(4-dimethylaminophenyl)-2-propen-1-one] | 217 ± 67 nM | 139 ± 13 nM | significantly inhibited cell migration | tubulin disorganization, increased number of phosphohistone H3-positive cells, chromatin condensation, and nuclear fragmentation | 45 – 100 fold |
| COc1cc(C(=O)/C=C/c2ccc3ccccc3c2)cc(OC)c1OC [Compound 2c, (2E)-1-(3’,4’,5’-trimethoxyphenyl)-3-(2-naphthyl)-2-propen-1-one] | 317 ± 23 nM | 283 ± 52 nM | significantly inhibited cell migration | tubulin disorganization, increased number of phosphohistone H3-positive cells, chromatin condensation, and nuclear fragmentation | 45 – 100 fold |
| COc1cc(C(=O)/C=C/c2ccc3ccccc3c2)ccc1O [Compound 2b, (2e)-3-(2-naphthyl)-1-(3'-methoxy-4'-hydroxy-phenyl)-2-propen-1-one] | 2,200 ± 700 nM | 1,100 ± 200 nM |  |  |  |
